# Earlier results, collected in patent US20210329918A1, “AQUEOUS COMPOSITIONS OF TOPRAMEZONE” (BASF SE, priority 2018, published 2021).
# Conditions: 25° C.
smiles,measurement,value
"Cc1c(C(=O)c2cnn(C)c2O)ccc(S(C)(=O)=O)c1C1=NOCC1 [topramezone, 4-[3-(4,5-dihydro-1,2-oxazol-3-yl)-2-methyl-4-methylsulfonylbenzoyl]-2-methyl-1H-pyrazol-3-one]",solubility of topramezone in water,about 0.305 g/L
